Results from patent US20160083357A1, “NOVEL TETRAZOLONE DERIVATIVES” (Hoffmann-La Roche Inc., priority 2013, published 2016).
Like-named read-outs stand apart in the source and are kept apart here.

Legend:
[1] = target: T1, human CB1 receptors (Homo sapiens, UniProt P21554); assay: cAMP assay, human CB1; assay type: cell-based
T1 construct: expressed in transfected cells; host or cells: CHO cells
Method in brief: (§1)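 CHO cells expressing human CB1 or CB2, preincubated in Krebs Ringer bicarbonate with 1 mM IBMX, then compound for 30 min at 30° C. cAMP quantified by time-resolved FRET (cAMP-Nano-TRF) against a cAMP standard curve; EC50 values derived.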

[2] = target: T2, human CB2 receptors (Homo sapiens, UniProt P34972); assay: cAMP assay, human CB2; assay type: cell-based
T2 construct: expressed in transfected cells; host or cells: CHO cells
Method in brief: as §1

[3] = functional cAMP assay, CHO cells expressing human CB1, read-out: Ec50: CB1 - hu cAMP
[4] = functional cAMP assay, CHO cells expressing human CB2, read-out: Ec50: CB2 - hu cAMP

T1 sequence (P21554 whole entry): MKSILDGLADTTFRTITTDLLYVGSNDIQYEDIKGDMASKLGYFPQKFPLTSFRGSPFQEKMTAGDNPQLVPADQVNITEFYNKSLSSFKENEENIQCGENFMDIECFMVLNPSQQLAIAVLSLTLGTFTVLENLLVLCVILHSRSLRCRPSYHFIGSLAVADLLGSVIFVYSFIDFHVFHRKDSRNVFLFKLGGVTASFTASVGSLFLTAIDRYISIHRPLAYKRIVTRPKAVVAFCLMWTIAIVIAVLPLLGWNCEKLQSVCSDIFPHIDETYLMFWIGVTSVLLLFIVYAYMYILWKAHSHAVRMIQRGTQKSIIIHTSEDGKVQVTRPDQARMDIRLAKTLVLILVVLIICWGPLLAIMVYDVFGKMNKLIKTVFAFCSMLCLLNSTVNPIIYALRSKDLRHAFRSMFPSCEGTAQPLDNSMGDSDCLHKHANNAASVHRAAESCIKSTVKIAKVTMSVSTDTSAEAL
T2 sequence (P34972 whole entry): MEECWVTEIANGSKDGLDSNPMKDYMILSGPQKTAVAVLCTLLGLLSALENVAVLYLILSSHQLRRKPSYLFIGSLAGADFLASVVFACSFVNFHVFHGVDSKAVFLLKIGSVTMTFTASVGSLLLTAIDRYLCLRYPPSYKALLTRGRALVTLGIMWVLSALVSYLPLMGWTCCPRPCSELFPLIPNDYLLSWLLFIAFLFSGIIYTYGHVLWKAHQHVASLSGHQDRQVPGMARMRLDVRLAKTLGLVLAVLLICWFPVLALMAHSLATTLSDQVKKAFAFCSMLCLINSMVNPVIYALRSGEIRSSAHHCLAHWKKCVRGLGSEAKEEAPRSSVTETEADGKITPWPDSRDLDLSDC

| EC50 [1, 3] [nM] | EC50 [2, 4] [nM] | SMILES | EC50 [1] [nM] | EC50 [2] [nM] |
| --- | --- | --- | --- | --- |
| > 10000 | 4.5 | O=C(N1CCOCC1)n1nnn(-c2ccc(Cl)cc2)c1=O [Example 103, 1-(4-Chloro-phenyl)-4-(morpholine-4-carbonyl)-1,4-dihydro-tetrazol-5-one] |  |  |
| > 10000 | 20.1 | CCNC(=O)CN1CCN(C(=O)n2nnn(-c3cccc(OC(F)(F)F)c3)c2=O)CC1 [Example 105, N-Ethyl-2-{4-[5-oxo-4-(3-trifluoromethoxy-phenyl)-4,5-dihydro-tetrazole-1-carbonyl]-piperazin-1-yl}-acetamide] |  |  |
| > 10000 | 10.6 | CCNC(=O)CN1CCN(C(=O)n2nnn(-c3ccc(Cl)cc3)c2=O)CC1 [Example 106, 2-{4-[4-(4-Chloro-phenyl)-5-oxo-4,5-dihydro-tetrazole-1-carbonyl]-piperazin-1-yl}-N-ethyl-acetamide] |  |  |
| > 10000 | 1.4 | CCOCCN(C)C(=O)n1nnn(-c2ccc(Cl)cc2)c1=O [Example 113, 4-(4-Chloro-phenyl)-5-oxo-4,5-dihydro-tetrazole-1-carboxylic acid (2-ethoxy-ethyl)-methyl-amide] |  |  |
| > 10000 | 1990 | CCOC(=O)Cn1nnn(-c2cccc(Cl)c2)c1=O [Example 114, [4-(3-Chloro-phenyl)-5-oxo-4,5-dihydro-tetrazol-1-yl]-acetic acid ethyl ester] |  |  |
| > 10000 | 2020 | O=C(Cn1nnn(-c2cccc(Cl)c2)c1=O)N1CCOCC1 [Example 115, 1-(3-Chloro-phenyl)-4-(2-morpholin-4-yl-2-oxo-ethyl)-1,4-dihydro-tetrazol-5-one] |  |  |
| > 10000 | 122 | CC(C(=O)N1CCCC1)N1CCN(C(=O)n2nnn(-c3cccc(Cl)c3)c2=O)CC1 (stereo not drawn) [Example 116, 1-(3-Chloro-phenyl)-4-[4-(1-methyl-2-oxo-2-pyrrolidin-1-yl-ethyl)-piperazine-1-carbonyl]-1,4-dihydro-tetrazol-5-one] |  |  |
| > 10000 | 106 | CC(C(=O)N1CCCC1)N1CCN(C(=O)n2nnn(-c3cccc(OC(F)(F)F)c3)c2=O)CC1 (stereo not drawn) [Example 117, 1-[4-(1-Methyl-2-oxo-2-pyrrolidin-1-yl-ethyl)-piperazine-1-carbonyl]-4-(3-trifluoromethoxy-phenyl)-1,4-dihydro-tetrazol-5-one] |  |  |
| > 10000 | 7 | O=C(N1CCOCC1)n1nnn(-c2ccc(F)c(F)c2)c1=O [Example 125, 1-(3,4-difluorophenyl)-4-(morpholine-4-carbonyl)tetrazol-5-one] |  |  |
| > 10000 | 13 | O=C(N1CCOCC1)n1nnn(-c2cc(F)cc(F)c2)c1=O [Example 126, 1-(3,5-difluorophenyl)-4-(morpholine-4-carbonyl)tetrazol-5-one] |  |  |

Second part, the molecule before the results:

| SMILES | EC50 [1, 3] [nM] | EC50 [2, 4] [nM] | EC50 [1] [nM] | EC50 [2] [nM] |
| --- | --- | --- | --- | --- |
| CCOCCN(CC)C(=O)n1nnn(-c2ccc(Cl)cc2)c1=O [Example 100, 4-(4-Chloro-phenyl)-5-oxo-4,5-dihydro-tetrazole-1-carboxylic acid (2-ethoxy-ethyl)-ethyl-amide] |  |  | > 10000 | 1.7 |
| O=C(N1CCOCC1)n1nnn(-c2cccc(Cl)c2)c1=O [Example 101, 1-(3-Chloro-phenyl)-4-(morpholine-4-carbonyl)-1,4-dihydro-tetrazol-5-one] | > 10000 | 3.2 |  |  |
| O=C(N1CCOCC1)n1nnn(-c2cccc(OC(F)(F)F)c2)c1=O [Example 102, 1-(Morpholine-4-carbonyl)-4-(3-trifluoromethoxy-phenyl)-1,4-dihydro-tetrazol-5-one] | > 10000 | 4.4 |  |  |
| CCNC(=O)CN1CCN(C(=O)n2nnn(-c3cccc(Cl)c3)c2=O)CC1 [Example 104, 2-{4-[4-(3-Chloro-phenyl)-5-oxo-4,5-dihydro-tetrazole-1-carbonyl]-piperazin-1-yl}-N-ethyl-acetamide] | > 10000 | 12.7 |  |  |
| CCCCNC(=O)CN1CCN(C(=O)n2nnn(-c3cccc(Cl)c3)c2=O)CC1 [Example 107, N-Butyl-2-{4-[4-(3-chloro-phenyl)-5-oxo-4,5-dihydro-tetrazole-1-carbonyl]-piperazin-1-yl}-acetamide] | > 10000 | 2.9 |  |  |
| CCCCNC(=O)CN1CCN(C(=O)n2nnn(-c3cccc(OC(F)(F)F)c3)c2=O)CC1 [Example 108, N-Butyl-2-{4-[5-oxo-4-(3-trifluoromethoxy-phenyl)-4,5-dihydro-tetrazole-1-carbonyl]-piperazin-1-yl}-acetamide] | > 10000 | 13.9 |  |  |
| CCCCNC(=O)CN1CCN(C(=O)n2nnn(-c3ccc(Cl)cc3)c2=O)CC1 [Example 109, N-Butyl-2-{4-[4-(4-chloro-phenyl)-5-oxo-4,5-dihydro-tetrazole-1-carbonyl]-piperazin-1-yl}-acetamide] | > 10000 | 4.2 |  |  |
| COCCNC(=O)n1nnn(-c2cccc(F)c2)c1=O [Example 110, 4-(3-Fluoro-phenyl)-5-oxo-4,5-dihydro-tetrazole-1-carboxylic acid (2-methoxy-ethyl)-amide] | > 10000 | 968 |  |  |
| CCOCCN(C)C(=O)n1nnn(-c2cccc(Cl)c2)c1=O [Example 111, 4-(3-Chloro-phenyl)-5-oxo-4,5-dihydro-tetrazole-1-carboxylic acid (2-ethoxy-ethyl)-methyl-amide] | > 10000 | 1.5 |  |  |
| CCOCCN(C)C(=O)n1nnn(-c2cccc(OC(F)(F)F)c2)c1=O [Example 112, 5-Oxo-4-(3-trifluoromethoxy-phenyl)-4,5-dihydro-tetrazole-1-carboxylic acid (2-ethoxy-ethyl)-methyl-amide] |  |  | > 10000 | 4.1 |
| CC(C(=O)N1CCCC1)N1CCN(C(=O)n2nnn(-c3ccc(Cl)cc3)c2=O)CC1 (stereo not drawn) [Example 118, 1-(4-Chloro-phenyl)-4-[4-(1-methyl-2-oxo-2-pyrrolidin-1-yl-ethyl)-piperazine-1-carbonyl]-1,4-dihydro-tetrazol-5-one] | > 10000 | 114 |  |  |
| O=C(N1CCOCC1)n1nnn(-c2ccccc2C(F)(F)F)c1=O [Example 119, 1-(morpholine-4-carbonyl)-4-[2-(trifluoromethyl)phenyl]tetrazol-5-one] | > 10000 | 386 |  |  |
| O=C(N1CCOCC1)n1nnn(-c2cccc(C(F)(F)F)c2)c1=O [Example 120, 1-(morpholine-4-carbonyl)-4-[3-(trifluoromethyl)phenyl]tetrazol-5-one] | > 10000 | 9.2 |  |  |
| O=C(N1CCOCC1)n1nnn(-c2ccc(C(F)(F)F)cc2)c1=O [Example 121, 1-(morpholine-4-carbonyl)-4-[4-(trifluoromethyl)phenyl]tetrazol-5-one] | > 10000 | 16 |  |  |
| O=C(N1CCOCC1)n1nnn(-c2c(F)cccc2F)c1=O [Example 122, 1-(2,6-difluorophenyl)-4-(morpholine-4-carbonyl)tetrazol-5-one] |  |  | > 10000 | 19 |
| O=C(N1CCOCC1)n1nnn(-c2ccc(F)cc2F)c1=O [Example 123, 1-(2,4-difluorophenyl)-4-(morpholine-4-carbonyl)tetrazol-5-one] | > 10000 | 12 |  |  |
| O=C(N1CCOCC1)n1nnn(-c2cc(F)ccc2F)c1=O [Example 124, 1-(2,5-difluorophenyl)-4-(morpholine-4-carbonyl)tetrazol-5-one] | > 10000 | 19 |  |  |
